Measured values reported in US9687480B2, “Chiral 1-(4-methylphenylmethyl)-5-oxo-{N-[(3-t-butoxycarbonyl-aminomethyl)]-piperidin-1-yl)-pyrrolidine as inhibitors of collagen induced platelet activation and adhesion” (Council of Scientific & Industrial Research, priority 2011, dated 2017).
Where “and” joins values, the source holds several entries; their conditions need not be identical. Equal entries are not always repeated. Where two headings read alike, the source gives them in different places.

Legend:
GPVI = target: T1, GPVI (Homo sapiens, UniProt Q9HCN6); assay: GPVI-mediated platelet adhesion assay on fibrillar collagen (human, in vitro); type: cell-based; settings: for Platelet adhesion: Table 2 summary, collagen type not stated, effective concentration in brackets: mixture 100 μM, compound 6 30 & 100 μM, compound 7 100 μM; for human platelet adhesion on fibrillar collagen (GP VI mediated): in vitro, washed platelets, divalent cation-free
T1 construct: Washed platelets, suspended in the Tyrode's-HEPES buffer; endogenous in cells; host or cells: washed human platelets from healthy volunteers
T1 sequence (Q9HCN6 21-339): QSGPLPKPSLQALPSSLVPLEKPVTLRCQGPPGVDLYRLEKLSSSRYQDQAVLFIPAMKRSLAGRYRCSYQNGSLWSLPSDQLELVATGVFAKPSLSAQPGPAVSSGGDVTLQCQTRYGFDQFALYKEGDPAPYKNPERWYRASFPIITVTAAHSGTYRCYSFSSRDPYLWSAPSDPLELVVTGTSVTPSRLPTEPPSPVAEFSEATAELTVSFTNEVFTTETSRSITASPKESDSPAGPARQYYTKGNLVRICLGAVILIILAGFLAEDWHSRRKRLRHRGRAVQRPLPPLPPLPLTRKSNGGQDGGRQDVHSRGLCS
T1 sequence (P30273 19-86 partner): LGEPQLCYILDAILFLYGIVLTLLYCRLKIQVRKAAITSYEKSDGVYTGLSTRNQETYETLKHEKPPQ
Experimental: (§1) Fresh blood was drawn by venipuncture from consenting healthy human volunteers in citrate-phosphate-dextrose. Platelet-rich plasma (PRP) was obtained by centrifugation at 180 g for 20 minutes at room temperature (Beckman TJ6. USA). […] Platelets were then washed twice with Buffer (20 mMHEPES, 138 mM NaCl, 2.9 mMKCl, 1 mMMgCl2, 0.36 mMNaH2PO4, 1 mM EGTA, 4.77 mM trisodium citrate, and 2.35 mM citric acid, 5 mM glucose and Apyrase 1 U/ml, pH 6.5) containing 0.1% bovine serum albumin (BSA) and finally resuspended in the HEPES-buffered Tyrode solution (pH 7.4), to give a concentration of 2×10^8 cells/mL (Jandrot-Perrus M. Lagrue A H, Okuma M, and Boni C Adhesion and Activation of Human Platelets Induced by Convulxin Involve Glycoprotein VI and Integrin α2β1 J. Biol. Chem. 1997; 272: 27035-27041).
Integrin α2β1 binding on soluble collagen depends on the presence of Mg2+/Ca^2+ (Onley D. J., Knight C. G., Tuckwell D. S., Barnes M. J., and Farndale R. W. Micromolar Ca2+ concentrations are essential for Mg2+-dependent binding of collagen by the integrin α2β1 in human platelets. J. Biol. Chem, 2000; 275: 24560-24564.) while GPVI mediates adhesion over fibrillar collagen in absence of divalent ions (Nieswandt B., Brakebusch C, Bergmeier W, Schulte V, Bouvard D, Nejad R M, Lindhout T, Heemskerk J W M, Zirngibl H and Fassler R. Glycoprotein VI but not α2b1 integrin is essential for platelet interaction with collagen. The EMBO Journal, 2001; 20:2120-2130) and therefore the adhesion assays were performed in the presence or absence of these divalent cations. Ninety-six well micro titer plates were coated with insoluble equine tendon fibrillar type I collagen or soluble rat tail type I (non-fibrillar) collagen, maintained in acetate buffer (pH 4.5), (Nakamura T., Jamieson G. A., Okuma M., Kambayashi J., and Tendon N. N. Platelet Adhesion to Native Type I Collagen Fibrils: role of gpVI in divalent cation-dependent and -independent adhesion and thromboxane A2 generation. J. Biol. Chem 1998; 273: 4338-[…], Tendon N N, Ockenhouse C F, Greco N J, Jamieson G A. Adhesive functions of platelet lacking GPIV (CD36). Blood 1991: 78: 2809-13). The unoccupied protein binding sites on the wells were blocked with 5 mg/ml BSA at room temperature for 1 hour, and then rinsed once in PBS. Washed platelets, suspended in the Tyrode's-HEPES buffer (136.7 mM NaCl, 13.8 mM NaHCO3, 0.36 mM NaH2PO4.H2O, 2.6 mM KCl, 1.0 mM MgCl2.6H2O, 5.5 mM glucose, 0.5% BSA, pH 7.4) at 1×10^8 cells/mL were pre-incubated with compounds for 30 min at 37° C. and added to the wells (10^7/well) for 1 h at room temperature. Divalent cation-free adhesion buffer was made by replacing Mg^2+ (1 mM) in the Tyrode-HEPES buffer with 50 μM EDTA (Yoshida S., Sudo T., Niimi M., Tao L., Sun B., Kambayashi J., Watanabe H., Luo E., and Matsuoka H. Inhibition of collagen-induced platelet aggregation by anopheline antiplatelet protein, a saliva protein from a malaria vector mosquito. Blood 2007; 111: 2007-201). After three washes in Tyrode's buffer, the number of adherent platelets was evaluated colorimetrically (as described by Bellavite P., Andrioli G., Gizzo P., Arigliano P., Chirumbolo S., Manzato F, Santonastaso C. A colorimetric method for the measurement of platelet adhesion in microtifer plates. Anal. Biochem. 1994; 216:444-450. Briefly, 150 μl of a 0.1 M citrate buffer (pH 5.4), containing 5 mM p-nitrophenyl phosphate and 0.1% TritonX-100 was added to the wells after washing. After incubation for 60 min at 25° C. in the absence of ambient light, colour was developed by the addition of 100 μl of 2N NaOH and the absorbance at 405 nm was read using a microplate reader (Powerware XS, Biotek, USA).

Integrin α2β1 = target: T2, Integrin α2β1 (Homo sapiens, UniProt P05556+P17301); assay: α2β1-mediated platelet adhesion assay on soluble collagen (human, in vitro); type: cell-based; settings: washed platelets, with Mg2+
T2 construct: Washed platelets, suspended in the Tyrode's-HEPES buffer; endogenous in cells; host or cells: washed human platelets from healthy volunteers
Experimental: as §1
Integrin α2β1 binding on soluble collagen depends on the presence of Mg2+/Ca^2+ (Onley D. J., Knight C. G., Tuckwell D. S., Barnes M. J., and Farndale R. W. Micromolar Ca2+ concentrations are essential for Mg2+-dependent binding of collagen by the integrin α2β1 in human platelets. J. Biol. Chem, 2000; 275: 24560-24564.) while GPVI mediates adhesion over fibrillar collagen in absence of divalent ions (Nieswandt B., Brakebusch C, Bergmeier W, Schulte V, Bouvard D, Nejad R M, Lindhout T, Heemskerk J W M, Zirngibl H and Fassler R. Glycoprotein VI but not α2b1 integrin is essential for platelet interaction with collagen. The EMBO Journal, 2001; 20:2120-2130) and therefore the adhesion assays were performed in the presence or absence of these divalent cations. […]

[1] = system: human platelet rich plasma (ADP induced aggregation); assay: ADP induced platelet aggregation, human platelet rich plasma (in vitro); type: cell-based
Experimental: The reaction was allowed to proceed for at least 5 min, and the extent of aggregation was expressed in light-transmission units (Ivandic B T, Schlick P, Starltz P, Kurz K, Katas H A, Giannitsis E. Determination of clopidogrel resistance by whole blood platelet aggregometry and inhibitors of the P2Y12 receptor. Clinical Chemistry 2006: 52:383-88).
The percentage of aggregation was calculated by using following formula: Percent Aggregation=A/B×100 Where, A is the number of division traversed by the label on chart in the presence of Inducer & B is the total number of divisions (80). Platelet Aggregation Studies (FIG. 3) a) Platelet Aggregation (Human, In Vitro) (FIG. 3a (i) (ii) (iii))

in vivo = type: in vivo, rabbits; settings: for AUC / Cmax / MRT / Tmax: 20 mg/kg
Experimental: In-vivo pharmacokinetic parameters were generated in male NZ rabbits at a dose of 20 mg/kg by oral route of administration. The blood samples were drawn at 0.25, 0.5, 0.75, 1, 1.5, 2, 4, 6, 8, 10, 12, 18 and 24 hr post dose, processed and analyzed by Liquid Chromatography-Mass Spectrometry (LC-MS). Plasma concentration at different time points were plotted to give Plasma Concentration Time Profile and the data was fitted non-compartmentally using Win NonLin 5.1 version software and the estimates of pharmacokinetic parameters were derived with SD mean values. Maximum plasma concentration (Cmax), time to achieve maximum plasma concentration (tmax).

[2] = male, NZ, rabbit, in vivo, as stated in the summary text, read-out: tmax

T2 sequence (P17301 30-1181): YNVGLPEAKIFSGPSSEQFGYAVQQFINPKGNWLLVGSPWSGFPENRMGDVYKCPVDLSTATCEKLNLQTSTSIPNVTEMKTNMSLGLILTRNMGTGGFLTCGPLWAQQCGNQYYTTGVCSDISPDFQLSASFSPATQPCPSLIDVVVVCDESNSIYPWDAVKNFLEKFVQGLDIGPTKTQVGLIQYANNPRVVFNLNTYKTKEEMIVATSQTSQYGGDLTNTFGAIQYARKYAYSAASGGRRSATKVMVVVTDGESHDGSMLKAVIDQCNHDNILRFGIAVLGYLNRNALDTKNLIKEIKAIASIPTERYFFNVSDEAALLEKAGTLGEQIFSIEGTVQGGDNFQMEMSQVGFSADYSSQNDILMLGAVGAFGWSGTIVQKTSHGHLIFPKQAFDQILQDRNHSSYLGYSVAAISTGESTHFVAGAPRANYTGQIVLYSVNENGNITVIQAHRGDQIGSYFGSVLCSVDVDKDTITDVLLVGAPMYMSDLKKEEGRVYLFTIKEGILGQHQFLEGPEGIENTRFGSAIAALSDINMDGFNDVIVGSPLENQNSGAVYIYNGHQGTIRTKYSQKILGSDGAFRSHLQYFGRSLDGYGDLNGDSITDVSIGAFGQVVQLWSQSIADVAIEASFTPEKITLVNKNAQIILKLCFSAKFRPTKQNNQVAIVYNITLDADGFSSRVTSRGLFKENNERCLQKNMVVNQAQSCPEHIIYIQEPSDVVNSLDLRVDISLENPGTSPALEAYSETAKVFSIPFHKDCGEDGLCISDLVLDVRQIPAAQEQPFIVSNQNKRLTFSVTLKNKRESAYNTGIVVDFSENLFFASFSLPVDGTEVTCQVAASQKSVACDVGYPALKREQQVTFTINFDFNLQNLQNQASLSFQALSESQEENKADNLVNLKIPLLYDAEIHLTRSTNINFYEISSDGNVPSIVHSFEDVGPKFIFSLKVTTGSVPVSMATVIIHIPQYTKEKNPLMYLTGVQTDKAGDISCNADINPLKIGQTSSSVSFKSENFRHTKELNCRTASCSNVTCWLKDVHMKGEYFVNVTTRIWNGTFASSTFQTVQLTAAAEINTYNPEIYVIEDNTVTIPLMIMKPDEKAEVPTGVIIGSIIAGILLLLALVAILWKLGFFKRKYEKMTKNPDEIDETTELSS
T2 sequence (P05556 21-798): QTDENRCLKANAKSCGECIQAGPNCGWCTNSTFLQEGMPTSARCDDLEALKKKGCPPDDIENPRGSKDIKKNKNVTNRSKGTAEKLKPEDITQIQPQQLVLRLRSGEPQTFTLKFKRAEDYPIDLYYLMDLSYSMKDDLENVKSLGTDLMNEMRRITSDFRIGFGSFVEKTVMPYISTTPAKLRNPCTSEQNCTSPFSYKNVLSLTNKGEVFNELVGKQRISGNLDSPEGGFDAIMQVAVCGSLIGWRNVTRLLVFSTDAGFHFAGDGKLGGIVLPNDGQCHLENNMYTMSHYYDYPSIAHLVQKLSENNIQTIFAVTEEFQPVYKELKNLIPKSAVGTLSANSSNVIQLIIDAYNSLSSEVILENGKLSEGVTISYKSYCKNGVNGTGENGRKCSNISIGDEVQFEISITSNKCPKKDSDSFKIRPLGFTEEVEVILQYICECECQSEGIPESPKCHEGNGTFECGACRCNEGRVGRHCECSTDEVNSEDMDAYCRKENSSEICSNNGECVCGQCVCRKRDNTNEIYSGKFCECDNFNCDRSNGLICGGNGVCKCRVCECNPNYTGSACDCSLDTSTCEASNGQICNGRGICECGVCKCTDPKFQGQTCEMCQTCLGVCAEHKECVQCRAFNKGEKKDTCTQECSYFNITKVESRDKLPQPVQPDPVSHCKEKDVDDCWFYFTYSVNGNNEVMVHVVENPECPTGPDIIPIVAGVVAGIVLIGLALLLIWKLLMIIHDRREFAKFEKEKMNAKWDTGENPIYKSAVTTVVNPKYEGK

Row | Compound | Platelet adhesion (GPVI) | human platelet adhesion on soluble collagen (GP Ia IIa / α2β1 mediated) (Integrin α2β1) | effect on ADP induced platelet aggregation ([1]; concentration not given) | human platelet adhesion on fibrillar collagen (GP VI mediated) (GPVI) | AUC (in vivo; male NZ rabbits, oral) | Cmax (in vivo; male NZ rabbits, oral) | MRT (in vivo; male NZ rabbits, oral) | Tmax (in vivo; male NZ rabbits, oral) | effect on ADP induced platelet aggregation ([1]; up to 300 μM) | prolonged systemic exposure (in vivo; as stated in the summary text) | Tmax (in vivo; [2])
1 | 1-(4-methylphenylmethyl)-5-oxo-{N-[(3-t-butoxycarbonyl-aminomethyl)]-piperidin-1-yl}-pyrrolidine-2-carboxamides [Compound 1] | Effective |  |  |  |  |  |  |  |  |  | 
2 | Cc1ccc(CN2C(=O)CC[C@H]2C(=O)N2CCCC(CNC(=O)OC(C)(C)C)C2)cc1 (some centres unmarked) [Compound 1, 1-(4-methylphenylmethyl)-5-oxo-{N-[(3-t-butoxycarbonyl-aminomethyl)]-piperidin-1-yl}-pyrrolidine-2-carboxamides] |  | partially inhibited | no effect | partially inhibited | 6524.15 ng·h/mL | 947.02 ± 237.4 ng/mL | 16.20 h | 0.68 h |  |  | 
3 | Cc1ccc(CN2C(=O)CC[C@H]2C(=O)N2CCC[C@@H](CNC(=O)OC(C)(C)C)C2)cc1 [Compound 6] | Effective (30 | partially inhibited | no effect | partially inhibited | 874.8 ng·h/mL | 149.49 ± 53.12 ng/mL | 5.25 h | 0.75 h | did not exhibit any effect | more than 24 hrs | 0.75 ± 0.144 h
4 | Cc1ccc(CN2C(=O)CC[C@H]2C(=O)N2CCC[C@H](CNC(=O)OC(C)(C)C)C2)cc1 [Compound 7, (2S)-1-(4-methylphenylmethyl)-5-oxo-(3R)-{N-[(3-t-butoxycarbonyl-aminomethyl)]-piperidin-1-yl}-pyrrolidine-2-carboxamide] | Effective | partially inhibited | no effect | partially inhibited | 1112.81 ng·h/mL | 112.81 ± 169.77 ng/mL and 112.40 ng/mL | 16.20 h | 8.67 h | did not exhibit any effect |  | 8.67 ± 0.66 h
